From patent US10065990B2, “Cyclic peptide compound, and preparation method, pharmaceutical composition and use thereof” (HANGZHOU GUANYU BIO-MEDICAL CO., LTD, priority 2013, dated 2018) come the findings set out here.

A word on the GI50: it is the concentration that inhibits growth by half.

Assay [1] has as its target T1, HDAC7 (Homo sapiens, UniProt Q8WUI4).
T1 sequence (Q8WUI4 1-952): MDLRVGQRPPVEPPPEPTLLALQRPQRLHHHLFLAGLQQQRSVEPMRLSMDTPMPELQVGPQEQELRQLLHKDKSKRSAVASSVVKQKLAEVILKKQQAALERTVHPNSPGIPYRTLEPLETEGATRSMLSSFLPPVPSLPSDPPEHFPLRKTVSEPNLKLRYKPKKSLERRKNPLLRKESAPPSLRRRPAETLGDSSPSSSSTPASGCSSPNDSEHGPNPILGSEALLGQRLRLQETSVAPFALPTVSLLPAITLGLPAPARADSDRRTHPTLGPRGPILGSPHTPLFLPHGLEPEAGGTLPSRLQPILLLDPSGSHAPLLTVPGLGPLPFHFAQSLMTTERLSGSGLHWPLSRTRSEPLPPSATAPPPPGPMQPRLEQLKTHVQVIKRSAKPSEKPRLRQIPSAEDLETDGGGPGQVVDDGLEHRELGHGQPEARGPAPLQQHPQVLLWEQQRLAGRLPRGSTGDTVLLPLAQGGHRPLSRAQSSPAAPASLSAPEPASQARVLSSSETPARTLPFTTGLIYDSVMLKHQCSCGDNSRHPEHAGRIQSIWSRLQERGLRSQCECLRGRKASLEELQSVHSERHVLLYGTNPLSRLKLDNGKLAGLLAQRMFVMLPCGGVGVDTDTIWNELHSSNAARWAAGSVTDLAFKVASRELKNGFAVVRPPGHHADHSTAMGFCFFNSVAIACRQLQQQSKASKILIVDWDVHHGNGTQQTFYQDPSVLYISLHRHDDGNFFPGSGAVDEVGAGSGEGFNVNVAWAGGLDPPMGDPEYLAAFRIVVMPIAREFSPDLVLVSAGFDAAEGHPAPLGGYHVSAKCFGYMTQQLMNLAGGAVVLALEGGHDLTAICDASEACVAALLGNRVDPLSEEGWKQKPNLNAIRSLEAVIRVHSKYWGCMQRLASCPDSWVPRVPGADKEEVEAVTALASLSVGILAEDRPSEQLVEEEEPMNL
As to the kind of experiment: HDAC biochemical activity measurement (fluorescent substrate deacetylation).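 Also: fluorogenic deacetylation assay using acetyl-lysine substrate at 20 µM, enzyme and compound incubated 30 min at 37 °C, then developer added, fluorescence read at 360/460 nm.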 The conditions noted are these: HDAC7; 37° C. 30 minutes.

In assay [2] the test system is Hela (human cervical cancer cells). Nature of the assay: MTT cancer cell growth inhibition. As to conditions: Homo sapiens, HeLa, 72 h, MTT, 72 hours incubation, read-out: GI50 Hela. It counts as cell-based. The essentials: (§1)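 GI50 values come from viability measured by MTT reduction at 570 nm. Plated overnight at 1500 cells per well, cultures received drug in three parallel wells across 10^−5–10^−10 M final and were incubated 72 h at 37° C. under 5% CO2 before MTT for 4 h.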

The subject of assay [3] is Huh-7 (human hepatoma cells). As to the kind of experiment: MTT cancer cell growth inhibition. In kind it is cell-based. As to conditions: Homo sapiens, Huh-7, 72 h, MTT, 72 hours incubation, Huh-7 cells; read-out: GI50 Huh-7. The essentials:
as §1

The test system of assay [4] is KBM-5 (human chronic myelogenous leukemia). Nature of the assay: MTT cancer cell growth inhibition. It counts as cell-based. As to conditions: Homo sapiens, KBM5, 72 h, MTT, 72 hours incubation, KBM-5 cells; read-out: GI50 KBM-5. The procedure, abridged: as §1
The test system of assay [5] is SGC-7901 (human gastric cancer cells). As to the kind of experiment: MTT cancer cell growth inhibition. It counts as cell-based. As to conditions: Homo sapiens, SGC-7901, 72 h, MTT, 72 hours incubation, SGC-7901 cells; read-out: GI50 SGC-7901. The essentials: as §1
For assay [6], the system named is KBM5-T315I (human chronic myelogenous leukemia). Nature of the assay: MTT cancer cell growth inhibition. It counts as cell-based. As to conditions: MTT, 72 hours incubation, KBM5-T315I cells, read-out: GI50 KBM5-T315I. The procedure, abridged:
as §1

Assay [7] concerns H1975 (non-small cell lung adenocarcinoma). As to the kind of experiment: MTT cancer cell growth inhibition. It counts as cell-based. The conditions noted are these: Homo sapiens, NCI-H1975, 72 h, MTT, 72 hours incubation, H1975 cells; read-out: GI50 H1975. The essentials:
as §1

Assay [8] concerns N-87 (human gastric cancer cells). Nature of the assay: MTT cancer cell growth inhibition. It counts as cell-based. As to conditions: Homo sapiens, 72 h, MTT, 72 hours incubation, N-87 cells; read-out: GI50 N-87. The procedure, abridged: as §1
For assay [9], the system named is U937 (human leukemia cells). Nature of the assay: MTT cancer cell growth inhibition. In kind it is cell-based. As to conditions: Homo sapiens, U-937, 72 h, MTT, 72 hours incubation, read-out: GI50 U93. The essentials:
as §1

Assay [10] concerns Bel-7402 (human hepatoma cells). As to the kind of experiment: MTT cancer cell growth inhibition. It counts as cell-based. As to conditions: MTT, 72 hours incubation, Bel-7402 cells, read-out: GI50 Bel-7402. The procedure, abridged:
as §1

Assay [11] deals with K562 (human leukemia cells). As to the kind of experiment: MTT cancer cell growth inhibition. In kind it is cell-based. The conditions noted are these: MTT, 72 hours incubation, K562 cells, read-out: GI50 K562. The procedure, abridged: as §1
Assay [12] concerns MDA-MB-231 (breast cancer cells). As to the kind of experiment: MTT cancer cell growth inhibition. In kind it is cell-based. The procedure, abridged: as §1
Assay [13] deals with MCF-7 (human breast cancer cells). Nature of the assay: MTT cancer cell growth inhibition. It counts as cell-based. As to conditions: Homo sapiens, MCF7, 72 h, 72 hours incubation, read-out: GI50 MCF. The procedure, abridged:
as §1

The test system of assay [14] is MOLT-4 (human acute lymphoblastic leukemia cells). Nature of the assay: MTT cancer cell growth inhibition. In kind it is cell-based. The conditions noted are these: MTT, 72 hours incubation, read-out: GI50 Mol. The procedure, abridged: as §1
Assay [15] concerns A549 (human lung cancer cells). As to the kind of experiment: MTT cancer cell growth inhibition. It counts as cell-based. The conditions noted are these: MTT, 72 hours incubation, read-out: GI50 A54. The essentials:
as §1

In assay [16] the test system is lncap (prostate cancer cells). As to the kind of experiment: MTT cancer cell growth inhibition. In kind it is cell-based. As to conditions: MTT, 72 hours incubation, read-out: GI50 lnca. The essentials: as §1
In assay [17] the test system is DU145 (human prostate cancer cells). Nature of the assay: MTT cancer cell growth inhibition. It counts as cell-based. The conditions noted are these: MTT, 72 hours incubation, read-out: GI50 Du1. The essentials:
as §1

The test system of assay [18] is PANC-1 (Pac-1, human pancreatic cancer cells). Nature of the assay: MTT cancer cell growth inhibition. The conditions noted are these: Homo sapiens, PANC-1, 72 h, MTT, 72 hours incubation, read-out: GI50 PAN. In kind it is cell-based. The essentials: as §1
Assay [19] concerns HCC827 (human non-small cell lung cancer cells). Nature of the assay: MTT cancer cell growth inhibition. In kind it is cell-based. As to conditions: Homo sapiens, HCC827, 72 h, MTT, 72 hours incubation, HCC827 cells; read-out: GI50 HCC827. The procedure, abridged:
as §1

Assay [20] relates to BGC-823 (human gastric cancer cells). As to the kind of experiment: MTT cancer cell growth inhibition. It counts as cell-based. The conditions noted are these: Homo sapiens, BGC-823, 72 h, MTT, 72 hours incubation, read-out: GI50 BG. The essentials: as §1
For assay [21], the system named is HT1080 (human fibrosarcoma cells). As to the kind of experiment: MTT cancer cell growth inhibition. In kind it is cell-based. The conditions noted are these: MTT, 72 hours incubation, read-out: GI50 HT1. The procedure, abridged: as §1
Where [22] appears, read: Homo sapiens, MDA-MB-231, 72 h, read-out: GI50 MDA-MB-231, MTT, 72 hours incubation, MDA-MB-231 cells.
[23] abbreviates: Homo sapiens, MOLT-4, 72 h, MOLT-4 cells.
[24] abbreviates: Homo sapiens, A549, 72 h, A549 cells.
The mark [25] stands for this setting: Homo sapiens, LNCaP, 72 h, lncap cells.
[26] abbreviates: Homo sapiens, DU-145, 72 h, DU145 cells.
The mark [27] stands for this setting: Homo sapiens, HT-1080, 72 h, HT1080 cells.

Like-named read-outs stand apart in the source and are kept apart here.

Take `C/C=C1\NC(=O)c2ccc(SC)c(n2)CNC(=O)C[C@@H](/C=C/CCSC(=O)CCCC)OC(=O)[C@H](C(C)C)NC1=O` [Compound 158]: in [1], the “IC50 HDAC7” value was “no activity”. The GI50 in assay [2] (Hela cells) was 60 nM; in [3], 41 nM; in assay [4], 46 nM; in [5] it was 27 nM; in assay [6] (Homo sapiens, 72 h), 27 nM; in assay [7] it was 49 nM. In addition, the 50% growth inhibitory concentration (GI50) came to 38 nM in assay [8]; 40 nM in assay [9] (U937 cells); 45 nM in assay [10] (Homo sapiens, Bel-7402, 72 h); 48 nM in assay [11] (Homo sapiens, K562, 72 h); 46 nM in assay [12] (setting [22]); 20 nM in [13] (MCF-7 cells). Also, the concentration for 50% growth inhibition (GI50) was determined as 80 nM in assay [14] (setting [23]); 30 nM in [15] (setting [24]); 40 nM in assay [16] (setting [25]); 60 nM in assay [17] (setting [26]); 20 nM in assay [18] (PANC-1 cells); 91 nM in assay [19]. The GI50 in assay [20] (BGC-823 cells) was 30 nM; in [21] (setting [27]), 70 nM.
`C=C1NC(=O)c2cc(F)cc(n2)CNC(=O)C[C@@H](/C=C/CCS)OC(=O)[C@H](C(C)C)NC1=O` [Compound 132]: the “IC50 HDAC7” value in assay [1] is “no activity”. Moreover, the GI50 is 20 nM in [2]; 26 nM in assay [3]; 24 nM in assay [4]; 28 nM in [5]; 43 nM in [6]; 28 nM in [7]. Moreover, the GI50 was found to be 57 nM in assay [8]; 40 nM in assay [9]; 77 nM in assay [10]; 48 nM in [11]; 16 nM in assay [12] (read-out: GI50 MDA-MB-231, MTT, 72 hours incubation, MDA-MB-231 cells); 100 nM in assay [13]. Further, the GI50 was found to be 30 nM in assay [14]; 20 nM in assay [15]; 30 nM in assay [16]; 150 nM in assay [17]; 70 nM in [18]; 52 nM in assay [19]. For the same compound, the GI50 in assay [20] turned out to be 40 nM; in assay [21] it was 30 nM.
As for `C/C=C1\NC(=O)c2cc(SC)cc(n2)CNC(=O)C[C@@H](/C=C/CCSC(C)=O)OC(=O)[C@H](Cc2ccccc2)NC1=O` [Compound 187], the “IC50 HDAC7” value in assay [1] is listed as “no activity”. Besides, the GI50 in assay [2] (Hela cells) turned out to be 40 nM; in [3] it was 85 nM; in [4] it was 21 nM; in assay [5] it was 38 nM; in assay [6] (Homo sapiens, 72 h), 41 nM; in [7], 23 nM. The GI50 stood at 42 nM in assay [8]; 60 nM in [9] (U937 cells); 43 nM in [10] (Homo sapiens, Bel-7402, 72 h); 45 nM in assay [11] (Homo sapiens, K562, 72 h); 11 nM in assay [12] (setting [22]); 20 nM in assay [13] (MCF-7 cells). The GI50 in assay [14] (setting [23]) is 30 nM; in assay [15] (setting [24]) it was 60 nM; in assay [16] (setting [25]), 60 nM; in assay [17] (setting [26]), 50 nM; in assay [18] (PANC-1 cells), 60 nM; in [19], 75 nM. For the same compound, the figures for the GI50 in assay [20] (BGC-823 cells) and in assay [21] (setting [27]) were 60 nM and 20 nM, respectively.
For the compound `C/C=C1\NC(=O)c2cc(SC)cc(n2)CNC(=O)C[C@@H](/C=C/CCSC(=O)CCCCCCC)OC(=O)[C@H](Cc2ccccc2)NC1=O` [Compound 190], the “IC50 HDAC7” value in [1] is listed as “no activity”. Also, the GI50 is 60 nM in assay [2] (Hela cells); 75 nM in assay [3]; 57 nM in [4]; 86 nM in assay [5]; 17 nM in [6] (Homo sapiens, 72 h); 23 nM in assay [7]. For the same compound, the GI50 in assay [8] was found to be 48 nM; in assay [9] (U937 cells) it was 50 nM; in assay [10] (Homo sapiens, Bel-7402, 72 h) it was 28 nM; in assay [11] (Homo sapiens, K562, 72 h) it was 63 nM; in assay [12] (setting [22]), 67 nM; in assay [13] (MCF-7 cells), 30 nM. Besides, the concentration for 50% growth inhibition (GI50) in [14] (setting [23]) was determined as 70 nM; in assay [15] (setting [24]), 20 nM; in assay [16] (setting [25]) it was 30 nM; in assay [17] (setting [26]) it was 20 nM; in assay [18] (PANC-1 cells) it was 60 nM; in assay [19], 56 nM. For the same compound, the GI50 is 50 nM in [20] (BGC-823 cells) and 20 nM in assay [21] (setting [27]).
